For experiment [1], the target named is T1, pneumolysin (Ply) (Streptococcus pneumoniae serotype 2, UniProt Q04IN8).
T1 construct: made in house; host or cells: E. coli BL21(DE3)
The experiment can be described thus: cell-based. The class given is cell-based. On the procedure: Native human erythrocytes were taken into EDTA tubes. The erythrocytes were washed three times with PBS (0.15 M NaCl, 2.7 mM KCl, 8.1 mM Na2HPO4 and 1.5 mM KH2PO4) by centrifugation at 700× g for 10 min. The purified erythrocytes were stored at +4 °C. Erythrocytes (1% v/v) in PBS were mixed with 1 nM Ply and dilution series of polyphenol inhibitors in 96-well microtiter plates. The reaction was incubated for 30 min at 37 °C. The plates were centrifuged, and the supernatant was pipetted into flat-bottomed microtiter plates to measure the absorbance at 570 nm (VICTOR X4, PerkinElmer, Turku, Finland) of the released hemoglobin from lysed erythrocytes. The absorbances of triplicate measurements are presented as a function of inhibitor concentration. The IC50 values were calculated with Origin data analysis software (2016, OriginLab Corporation, Northampton, MA, USA).

For experiment [2], the target named is T1, pneumolysin (Ply). The experiment can be described thus: A549 cell cytotoxicity assay (LDH release). The class given is cell-based. To be noted: 2 nM Ply, A549 cells, 2 h. The protocol:
For the A549 cell cytotoxicity assay, 5000 cells/well of A549 cells were grown in Dulbecco’s modified Eagle Medium, DMEM (Thermo Fischer Scientific Inc., Waltham, MA, USA), 2 mM glutamine and 10% fetal calf serum (FCS) for 48 h in 96-well microtiter plates. Cells were washed with PBS and dilutions of PGG (0, 125, 250, 500, 1000 and 2000 nM) and 2 nM Ply in PBS were added to the wells and they were incubated for 2 h at 37 °C in 5% CO2 atmosphere. Ply cytotoxicity was determined with the Cytotoxicity Detection Kit^PLUS (Roche Diagnostics GmbH, Mannheim, Germany) according to the manufacturer’s instructions. The released LDH was measured at A490. Complete lysis control was measured in the presence of 0.02% Triton X-100, and for background measurements, cells were incubated without Ply. The values were normalized by calculating using the equation (A490 Ply+inhibitor − A490 Background)/(A490 Triton X-100 − A490 Background)(1)
For orientation: LDH leaks from cells whose membrane has failed.

The target in experiment [3] is T1, pneumolysin (Ply). Description: Pneumolysin oligomerization assay using erythrocytes. The class given is cell-based. On the procedure: For the oligomerization assay, 100 nM Ply (3 µg), 1% (v/v) erythrocytes and 100 µM PGG in PBS were incubated for 2 min at 25 °C and were centrifuged at 16,000× g for 30 min at +7 °C. The pellet containing intact erythrocytes and the membranes from lysed cells were suspended into the water to complete the lysis and recentrifuged at 16,000× g for 30 min. The membranes were suspended into an SDS-PAGE sample buffer (60 mM Tris-HCl, pH 6.8; 2% SDS; 0.001% bromophenol blue; 0.5% β-mercaptoethanol) without incubation at 95 °C and the proteins were separated in 6% SDS-PAGE gel. The gel was stained with Coomassie blue (40% methanol; 10% acetic acid; 0.25% Brilliant blue R-250) and destained in 20% methanol and 5% acetic acid overnight. The proteins were transferred to polyvinyldifluoride (PVDF) membrane for 30 min, 25 V in SDS-PAGE running buffer (25 mM Tris, 190 mM glycine, 0.1% SDS) using the Trans-Blot Turbo Transfer System (Bio-Rad Laboratories Inc., Hercules, CA, USA). The membrane was blocked with 5% (w/v) defatted milk powder in TBS-Tween (10 mM Tris pH 7.5; 150 mM NaCl; 0.05% Tween 20) for 30 min at 25 °C. The His-tagged Ply was detected with anti-His antibody (1:5000 dilution, Sigma-Aldrich, St. Louis, MO, USA) and horseradish […] anti-mouse antibody (1:10,000 dilution, DakoCytomation, Glostrup, Denmark). […]

The target of experiment [4] is T1, pneumolysin (Ply). Description: Precipitation assay of pneumolysin-tannin interaction. Type of experiment: binding. The protocol: The precipitation assay with tannins was done as described previously with bovine serum albumin [22]. First, 10 μM of Ply and dilution series of polyphenols (5–1000 µM) were incubated in a Na-acetate buffer (200 mM NaCl and 50 mM CH3COONa; pH 5.0) at 25 °C for 30 min with shaking. The reactions were carried out in Multiskan Ascent plate reader (Labsystems, Vantaa, Finland) and the precipitation was measured at 414 nm. The minimum concentration precipitating Ply was calculated with Origin data analysis software (2016, OriginLab Corporation, Northampton, MA, USA).

For experiment [5], the system named is Ply. Further details: method as in PMID 15928084. Particulars: cited from earlier work.

T1 sequence (Q04IN8 whole entry): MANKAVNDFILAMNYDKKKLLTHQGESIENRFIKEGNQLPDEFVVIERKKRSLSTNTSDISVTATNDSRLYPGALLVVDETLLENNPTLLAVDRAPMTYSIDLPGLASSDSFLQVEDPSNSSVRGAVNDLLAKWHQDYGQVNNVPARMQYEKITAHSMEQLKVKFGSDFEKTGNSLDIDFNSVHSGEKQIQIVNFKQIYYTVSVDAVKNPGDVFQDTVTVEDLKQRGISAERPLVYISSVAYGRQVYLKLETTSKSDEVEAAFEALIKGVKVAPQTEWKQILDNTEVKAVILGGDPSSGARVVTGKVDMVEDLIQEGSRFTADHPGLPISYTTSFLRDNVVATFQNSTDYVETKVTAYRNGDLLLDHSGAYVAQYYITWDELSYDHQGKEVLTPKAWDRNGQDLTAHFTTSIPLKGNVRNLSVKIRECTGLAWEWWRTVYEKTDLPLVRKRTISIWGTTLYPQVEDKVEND

As a reminder, the IC50 is the point on the concentration scale where inhibition reaches its midpoint. One may read the inhibition as how much of the control response was suppressed. Low readings indicate little suppression, high ones strong suppression. For `O=C(OC[C@H]1O[C@@H](OC(=O)c2cc(O)c(O)c(O)c2)[C@H](OC(=O)c2cc(O)c(O)c(O)c2)[C@@H](OC(=O)c2cc(O)c(O)c(O)c2)[C@@H]1OC(=O)c1cc(O)c(O)c(O)c1)c1cc(O)c(O)c(O)c1` [PGG, 1,2,3,4,6-penta-O-galloyl-β-D-glucose], the “Hemolysis Inhibition Inhibitory Power” value in experiment [1] came to 13. The IC50 in experiment [1] (Hemolysis Inhibition IC50, 1 nM Ply, 1% human erythrocytes, 30 min 37 °C, logistic fit) is 18 ± 0.7 nM; in experiment [1] (IC50 (screening with hemolysis assays), estimated from the inhibition curves, two-fold dilutions of tannins), 10 nM. In addition, the “Inhibitor class in hemolysis inhibition assay” value in experiment [1] (classification by IC50 from two-fold dilutions) is “potent (potent inhibitors (IC50 10–30 nM))”. The same molecule displayed an inhibition at 0.5 µM in experiment [2] (500 nM PGG, compared to pneumolysin alone) of 60%. This molecule yielded an inhibition at 1 µM in experiment [2] (1000 nM PGG, compared to pneumolysin alone) of 87%. Moreover, at 2 µM the inhibition in experiment [2] (2000 nM PGG, compared to pneumolysin alone) was 90%. In addition, the “Inhibition of LDH release” value in experiment [2] (≤250 nM PGG) is on record as “moderate inhibition”. Moreover, the “Ply oligomer complex on erythrocytes” value in experiment [3] (100 µM PGG, 100 nM Ply, Coomassie-stained SDS-PAGE) is “abolished”. The “Concentration that still inhibited Ply oligomerization” value in experiment [3] (dilution series of PGG (0–100 µM), Western blotting with anti-His antibody) is 30 µM. In addition, the “Minimum Precipitating Concentration” value in experiment [4] (10 μM Ply, Na-acetate buffer pH 5.0, 25 °C, 30 min, absorbance 414 nm) worked out at 14 µM. Also, the “Precipitation Relative Power” value in experiment [4] (fold compared to vescalagin (=1)) came out at 58. In experiment [4] (minimum precipitating concentration vs hemolysis IC50), the “Fold higher precipitating concentration compared to hemolysis IC50” value was found to be 770 fold.

As to `O=C(O[C@@H]1Cc2c(O)cc(O)cc2O[C@@H]1c1cc(O)c(O)c(O)c1)c1cc(O)c(O)c(O)c1` [EGCG, epigallocatechin gallate], in experiment [5], the “Concentration required for inhibition of Ply hemolytic activity” value is given as “micromolar concentrations were required”.

The values are drawn from paper PMC7766327, “Inhibition of Pneumolysin Cytotoxicity by Hydrolysable Tannins” (Antibiotics, 2020).
